Patent publication US20240287037A1, “CYCLOALKYL COMPOUNDS AND PHARMACEUTICAL COMPOSITIONS THAT MODULATE IKZF2” (Plexium, Inc., priority 2021, published 2024)

Key:
Assay type in all cases: cell-based
IKZF1 (Ikaros) = IKZF1 (Ikaros) (Homo sapiens (Human), UniProt Q13422+Q96SW2); assay: IKZF1 reporter degradation assay (HEK 293T IKZF1-mNeonGreen reporter cell line); settings: HEK 293T reporter cells, 24 hour incubation
Excerpt: (§1) Polycistronic plasmids were constructed for the mammalian expression of fluorescent reporter fusions of human transcription factors IKZF1 (Ikaros), IKZF2 (Helios), and IKZF3 (Aiolos). The respective protein sequences had their C-terminal end joined to a GGGGS linker repeated three times followed by mNeonGreen, P2A sequence, and mScarlet. The DNA sequences of the open reading frames are as follows:
(§2) IKZF1, IKZF2, and IKZF3 constructs were cloned into the UCOE Hygromycin expression vectors (Millipore Sigma). Reporter constructs were transfected using cationic lipid reagents into adherent HEK 293T cells and stable integrants were selected by treatment with 200 μg/mL hygromycin B. Clonal populations were obtained from the population of stable integrants either by limiting dilution or fluorescence activated cell sorting.
(§3) The clonal stable cell lines were maintained under constant 200 μg/mL hygromycin B selection while being passaged for use in the degradation assays. […] The fluorescence intensity of the IKZF1/2/3-mNeonGreen (FITC channel) and mScarlet (PE channel) reporters were routinely analyzed by flow cytometry to confirm consistent expression levels between experiments.
(§4) The IKZF1/IKZF2/IKZF3 degradation assays were carried out by harvesting the HEK 293T reporter cell lines and resuspending the cells in media formulated for reduced background fluorescence (FluoroBrite; Thermo Fisher). The respective cell lines were seeded at a density of 4000 cells/well into black-walled 384-well optical grade assay tissue culture plates. The cells were incubated overnight at 37° C. to allow for attachment to the assay plate. Dilutions of the compounds were prepared in DMSO from 10 mM compound stocks. The assay plates were treated with appropriate concentrations of the compounds by dispensing the DMSO dilutions in quadruplicate wells with an upper limit of 0.5% final DMSO.
(§5) After 24 hour incubation with the compounds, the assay plates were imaged on an ImageXpress Pico microscopy system (cells maintained at 37° C. during imaging) to obtain the fluorescent readouts. The assay plates were imaged in the FITC and Tetramethylrhodamine (TRITC) channels to obtain the mNeonGreen fluorescence intensity (reporter degradation data) and mScarlet fluorescence intensity (for cell segmentation). 293T-IKZF1 and 293T-IKZF3 reporter cell lines were imaged with exposures of 500 milliseconds (ms) for both FITC and TRITC channels, while the 293T-IKZF2 reporter cell line was imaged with exposures of 1000 ms for FITC and 1250 ms for TRITC. The resulting data was analyzed with Cell Reporter Xpress software using the 2-channel cell scoring analysis with a “percent positive” readout. The TRITC channel was selected for the “nuclei” segmentation with a threshold of 20 while the FITC channel was selected for the “Marker 1” segmentation and a threshold of 100 for the IKZF and IKZF3 reporter lines. […] The minimum segmentation width was set to 6 micrometers and the maximum segmentation width was set to 15 micrometers for all cell lines. The DC50 calculations were determined by regression to best fit four-parameter logistic curves using GraphPad Prism.

IKZF3 (Aiolos) = IKZF3 (Aiolos) (Homo sapiens (Human), UniProt Q96SW2+Q9UKT9); assay: IKZF3 reporter degradation assay (HEK 293T IKZF3-mNeonGreen reporter cell line); settings: HEK 293T reporter cells, 24 hour incubation
Sequence of IKZF3 (Aiolos) (Q9UKT9 whole entry): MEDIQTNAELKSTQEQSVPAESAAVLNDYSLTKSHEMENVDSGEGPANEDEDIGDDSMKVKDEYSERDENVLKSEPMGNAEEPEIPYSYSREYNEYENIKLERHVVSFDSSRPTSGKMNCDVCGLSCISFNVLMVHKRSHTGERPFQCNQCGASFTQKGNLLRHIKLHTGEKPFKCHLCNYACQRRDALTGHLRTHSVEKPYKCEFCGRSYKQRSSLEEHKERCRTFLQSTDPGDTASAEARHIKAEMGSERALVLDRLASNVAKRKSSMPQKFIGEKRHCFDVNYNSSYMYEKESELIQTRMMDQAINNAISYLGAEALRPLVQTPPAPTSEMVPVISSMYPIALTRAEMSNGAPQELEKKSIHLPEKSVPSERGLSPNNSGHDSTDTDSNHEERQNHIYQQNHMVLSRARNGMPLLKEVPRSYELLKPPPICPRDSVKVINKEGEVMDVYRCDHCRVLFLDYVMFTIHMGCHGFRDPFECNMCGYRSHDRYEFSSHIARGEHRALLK
Sequence of IKZF3 (Aiolos) (Q96SW2 whole entry): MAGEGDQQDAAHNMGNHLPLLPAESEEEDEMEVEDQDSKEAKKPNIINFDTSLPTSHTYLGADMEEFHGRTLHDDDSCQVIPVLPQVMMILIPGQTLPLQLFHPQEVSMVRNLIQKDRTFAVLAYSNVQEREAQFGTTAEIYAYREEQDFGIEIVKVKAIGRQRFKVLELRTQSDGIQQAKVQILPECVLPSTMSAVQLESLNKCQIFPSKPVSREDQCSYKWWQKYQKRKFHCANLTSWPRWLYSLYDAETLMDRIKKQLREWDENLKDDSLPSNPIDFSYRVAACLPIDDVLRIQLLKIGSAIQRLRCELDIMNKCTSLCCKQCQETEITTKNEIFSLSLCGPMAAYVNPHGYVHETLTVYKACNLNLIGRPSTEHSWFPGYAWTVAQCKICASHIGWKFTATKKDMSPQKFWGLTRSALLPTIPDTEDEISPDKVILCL
Sequence of IKZF3 (Aiolos) (Q16531 whole entry partner): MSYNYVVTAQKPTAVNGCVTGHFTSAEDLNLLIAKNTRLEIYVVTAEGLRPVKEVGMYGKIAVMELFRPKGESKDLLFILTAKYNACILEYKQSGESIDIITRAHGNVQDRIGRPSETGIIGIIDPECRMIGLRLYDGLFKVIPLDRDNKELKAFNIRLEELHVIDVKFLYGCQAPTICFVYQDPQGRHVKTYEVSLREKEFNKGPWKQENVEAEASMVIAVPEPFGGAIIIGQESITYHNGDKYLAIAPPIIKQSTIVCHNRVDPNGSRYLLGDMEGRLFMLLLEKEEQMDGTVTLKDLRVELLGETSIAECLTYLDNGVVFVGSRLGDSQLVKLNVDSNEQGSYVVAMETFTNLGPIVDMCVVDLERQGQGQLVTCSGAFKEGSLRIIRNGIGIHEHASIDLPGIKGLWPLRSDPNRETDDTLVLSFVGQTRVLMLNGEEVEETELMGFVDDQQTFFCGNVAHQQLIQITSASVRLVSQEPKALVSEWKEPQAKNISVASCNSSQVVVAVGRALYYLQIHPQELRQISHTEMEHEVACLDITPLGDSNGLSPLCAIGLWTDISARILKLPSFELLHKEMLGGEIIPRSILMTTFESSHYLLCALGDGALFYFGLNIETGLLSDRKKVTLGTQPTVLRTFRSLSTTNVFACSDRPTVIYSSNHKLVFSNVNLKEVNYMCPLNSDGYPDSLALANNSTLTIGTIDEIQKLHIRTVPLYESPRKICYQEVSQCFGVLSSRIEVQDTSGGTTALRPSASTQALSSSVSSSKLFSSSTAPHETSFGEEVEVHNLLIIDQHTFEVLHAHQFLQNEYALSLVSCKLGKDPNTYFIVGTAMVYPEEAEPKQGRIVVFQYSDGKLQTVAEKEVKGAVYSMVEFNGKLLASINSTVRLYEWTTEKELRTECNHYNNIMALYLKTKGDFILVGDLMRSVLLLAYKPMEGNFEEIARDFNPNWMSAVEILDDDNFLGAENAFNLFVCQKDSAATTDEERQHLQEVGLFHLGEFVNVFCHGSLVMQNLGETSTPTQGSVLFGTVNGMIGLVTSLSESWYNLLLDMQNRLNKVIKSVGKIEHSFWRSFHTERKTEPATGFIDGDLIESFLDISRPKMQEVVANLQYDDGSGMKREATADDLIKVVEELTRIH
Excerpt: as §1, §2, §3, §4, §5

GSPT1 = GSPT1 (Homo sapiens (Human), UniProt P15170+Q96SW2); assay: GSPT1 reporter degradation assay (HEK293 hGSPT1 HiBiT-tagged cells); settings: 24 hour incubation
Sequence of GSPT1 (P15170 whole entry): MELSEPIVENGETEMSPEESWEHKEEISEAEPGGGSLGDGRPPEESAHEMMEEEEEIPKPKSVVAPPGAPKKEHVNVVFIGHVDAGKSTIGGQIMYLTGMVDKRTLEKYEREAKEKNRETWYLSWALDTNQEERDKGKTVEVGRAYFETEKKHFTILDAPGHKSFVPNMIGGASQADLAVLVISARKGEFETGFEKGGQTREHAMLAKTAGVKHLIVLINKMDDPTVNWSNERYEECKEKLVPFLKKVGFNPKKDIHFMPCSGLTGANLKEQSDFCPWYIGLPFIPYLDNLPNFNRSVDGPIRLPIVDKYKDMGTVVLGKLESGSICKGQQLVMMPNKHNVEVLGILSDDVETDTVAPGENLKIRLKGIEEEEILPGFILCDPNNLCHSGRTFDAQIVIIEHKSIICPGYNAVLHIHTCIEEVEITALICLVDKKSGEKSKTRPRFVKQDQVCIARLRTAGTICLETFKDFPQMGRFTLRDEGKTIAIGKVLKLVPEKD
Sequence of GSPT1 (Q96SW2 whole entry): as the sequence (Q96SW2 whole entry) above
Sequence of GSPT1 (Q16531 whole entry partner): as the sequence (Q16531 whole entry partner) above
Method: HEK293_hGSPT1_HiBiT-tagged cells were generated using CRISPR-Cas12a technology. Briefly, ˜400,000 HEK293 cells were transiently co-transfected with precomplexed ribonuclear proteins (RNPs) consisting of […] of crRNA (IDT), […] of Cas12a protein (IDT), 3 μg of ssODN donor (IDT; AltRTM modifications), 78 pmol of electroporation enhancer (IDT), and 200 ng of pMaxGFP (Lonza). The transfection was performed via nucleofection (Lonza, 4D-Nucleofector X-unit) using solution P3 and program CM-130 in a (20 μL) cuvette. Five days post-nucleofection, cells were single-cell-sorted for GFP+ (transfected) cells by FACs in 96-well plates and clonally selected. Clones were screened and verified for the desired modification via targeted deep sequencing using gene-specific primers with partial Illumina adapter overhangs as previously described. In brief, clonal cell pellets were harvested, lysed, and used to generate gene-specific amplicons with partial Illumina adapters in PCR #1. Amplicons were indexed in PCR #2 and pooled with other targeted amplicons for other loci to create sequence diversity. Additionally, 10% PhiX sequencing control V3 (Illumina) was added to the pooled amplicon library prior to running the sample on a Miseq Sequencer System (Illumina) to generate paired 2×250 bp reads. Samples were demultiplexed using the index sequences, fastq files were generated, and NGS analysis was performed using CRIS.py.
The GSTP1 degradation assay was carried out by harvesting the HEK 293T reporter cell lines and resuspending the cells in media formulated for reduced background fluorescence (FluoroBrite; Thermo Fisher). The respective cell lines were seeded at a density of 8,000 cells/well into white-opaque 384-well optical grade assay tissue culture plates (Greiner 781080-20). The cells were incubated overnight at 37° C. to allow for attachment to the assay plate. Dilutions of the compounds were prepared in DMSO from 10 mM compound stocks. […] Plates were centrifuged at 320×g for 2 minutes at room temperature, and subsequently incubated at 37° C.
After 24 hour incubation with the compounds, the plates were allowed to cool to room temperature for 10 minutes. 30 μL of HiBiT lytic buffer+1:50 HiBiT substrate Solution were added to each well. Plates were centrifuged at 320×g for 2 minutes at room temperature and then incubated with shaking at room temperature for 10 minutes covered with foil. Plates were read on a CLARIOstar microplate reader (BMG LabTech), measuring at 450 nm (donor emission) and 610 nm or 630 nm (acceptor emission). The DC50 values were determined by regression to best fit four-parameter logistic curves using GraphPad Prism.

IKZF2 (Helios) = IKZF2 (Helios) (Homo sapiens (Human), UniProt Q96SW2+Q9UKS7); assay: IKZF2 reporter degradation assay (HEK 293T IKZF2-mNeonGreen reporter cell line); settings: 24 hour incubation; for inhibition at 1 µM: HEK-293T, 24 h
Sequence of IKZF2 (Helios) (Q9UKS7 whole entry): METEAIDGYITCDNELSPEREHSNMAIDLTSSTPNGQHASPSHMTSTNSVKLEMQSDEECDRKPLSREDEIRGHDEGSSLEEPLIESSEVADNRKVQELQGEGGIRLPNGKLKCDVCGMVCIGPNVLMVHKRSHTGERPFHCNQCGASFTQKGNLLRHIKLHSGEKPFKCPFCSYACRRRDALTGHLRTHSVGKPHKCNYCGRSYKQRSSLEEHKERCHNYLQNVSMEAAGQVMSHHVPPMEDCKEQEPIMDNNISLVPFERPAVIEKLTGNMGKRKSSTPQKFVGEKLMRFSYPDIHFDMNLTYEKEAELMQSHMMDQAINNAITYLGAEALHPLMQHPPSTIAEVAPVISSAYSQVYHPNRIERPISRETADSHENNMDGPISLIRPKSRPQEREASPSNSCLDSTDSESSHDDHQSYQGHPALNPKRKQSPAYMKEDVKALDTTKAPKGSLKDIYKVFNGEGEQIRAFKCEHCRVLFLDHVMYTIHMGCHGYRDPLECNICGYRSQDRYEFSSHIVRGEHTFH
Sequence of IKZF2 (Helios) (Q96SW2 whole entry): as the sequence (Q96SW2 whole entry) above
Sequence of IKZF2 (Helios) (Q16531 whole entry partner): as the sequence (Q16531 whole entry partner) above
Excerpt: as §1, §2, §3, §4, §5

[1] = Table 3, HEK 293T reporter cells
[2] = second (untitled) table after Table 3

Sequence of IKZF1 (Ikaros) (Q13422 whole entry, the tested form may be a part): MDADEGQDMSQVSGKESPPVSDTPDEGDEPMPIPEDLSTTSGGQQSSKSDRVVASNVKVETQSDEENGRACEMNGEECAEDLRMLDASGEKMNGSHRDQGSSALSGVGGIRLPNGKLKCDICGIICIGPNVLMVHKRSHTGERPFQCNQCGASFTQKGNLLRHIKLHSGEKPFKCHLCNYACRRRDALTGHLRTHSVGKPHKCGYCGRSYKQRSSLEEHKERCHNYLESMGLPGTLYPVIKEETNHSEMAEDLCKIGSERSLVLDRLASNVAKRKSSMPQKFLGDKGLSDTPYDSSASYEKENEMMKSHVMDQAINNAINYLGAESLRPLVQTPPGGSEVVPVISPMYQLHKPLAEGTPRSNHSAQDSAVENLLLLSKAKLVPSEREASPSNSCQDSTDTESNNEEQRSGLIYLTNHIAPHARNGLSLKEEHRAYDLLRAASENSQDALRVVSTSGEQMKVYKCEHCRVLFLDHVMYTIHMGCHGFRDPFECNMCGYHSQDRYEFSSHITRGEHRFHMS
Sequence of IKZF1 (Ikaros) (Q96SW2 whole entry, the tested form may be a part): as the sequence (Q96SW2 whole entry) above
Sequence of IKZF1 (Ikaros) (Q16531 whole entry partner, the tested form may be a part): as the sequence (Q16531 whole entry partner) above

| SMILES | DC50 (IKZF1 (Ikaros)) | DC50 (IKZF3 (Aiolos)) | DC50 (GSPT1) | DC50 (IKZF2 (Helios); HEK 293T reporter cells) | inhibition at 1 µM (IKZF2 (Helios); [1]) | inhibition at 1 µM (IKZF2 (Helios); [2]) | IKZF2% Degradation @ 1 μM (IKZF2 (Helios); [1]) | IKZF2% Degradation @ 1 μM (IKZF2 (Helios); [2]) | IKZF3% Degradation @ 1 μM (IKZF3 (Aiolos); 1 μM) |
| --- | --- | --- | --- | --- | --- | --- | --- | --- | --- |
| O=C1CCC(N2Cc3cc(O[C@H]4CCC[C@@H]4N4CC(C5CC5)C4)ccc3C2=O)C(=O)N1 (stereo partly drawn) [Compound 22, 3-(5-(((1S,2S)-2-(3-cyclopropylazetidin-1-yl)cyclopentyl)oxy)-1-oxoisoindolin-2-yl)piperidine-2,6-dione] | > 30 µM | > 30 µM | > 30 µM | 0.009 µM | 82.6% | 82.6% |  |  |  |
| O=C1CCC(N2Cc3cc(O[C@H]4CCC[C@@H]4N4CC(C5CCC(F)(F)CC5)C4)ccc3C2=O)C(=O)N1 (stereo partly drawn) [Compound 13, 3-(5-(((1S,2S)-2-(3-(4,4-difluorocyclohexyl)azetidin-1-yl)cyclopentyl)oxy)-1-oxoisoindolin-2-yl)piperidine-2,6-dione] | > 30 µM | > 30 µM | > 30 µM | 0.005 µM | 75.9% | 75.9% |  |  |  |
| O=C1CCC(N2Cc3cc(O[C@H]4CCCC[C@@H]4N4CC(C5CCC(F)(F)CC5)C4)ccc3C2=O)C(=O)N1 (stereo partly drawn) [Compound 2, 3-(5-(((1S,2S)-2-(3-(4,4-difluorocyclohexyl)azetidin-1-yl)cyclohexyl)oxy)-1-oxoisoindolin-2-yl)piperidine-2,6-dione] | > 30 µM | > 30 µM | > 30 µM | 0.003 µM | 74.6% | 74.6% |  |  |  |
| O=C1CCC(N2Cc3cc(O[C@H]4CCCC[C@@H]4N4CC(C5CC5)C4)c(F)cc3C2=O)C(=O)N1 (stereo partly drawn) [Compound 26, 3-(5-(((1S,2S)-2-(3-cyclopropylazetidin-1-yl)cyclohexyl)oxy)-6-fluoro-1-oxoisoindolin-2-yl)piperidine-2,6-dione] | > 30 µM | > 30 µM | > 30 µM | 0.025 µM | 77.8% | 77.8% |  |  |  |
| O=C1CCC(N2Cc3c(ccc(O[C@H]4CCCC[C@@H]4N4CC(C5CCC5)C4)c3F)C2=O)C(=O)N1 (stereo partly drawn) [Compound 25, 3-(5-(((1S,2S)-2-(3-cyclobutylazetidin-1-yl)cyclohexyl)oxy)-4-fluoro-1-oxoisoindolin-2-yl)piperidine-2,6-dione] | > 30 µM | > 30 µM | > 30 µM | 0.01 µM | 86.7% | 86.7% |  |  |  |
| O=C1CCC(N2Cc3c(ccc(O[C@H]4CCCC[C@@H]4N4CC(C5CC5)C4)c3F)C2=O)C(=O)N1 (stereo partly drawn) [Compound 24, 3-(5-(((1S,2S)-2-(3-cyclopropylazetidin-1-yl)cyclohexyl)oxy)-4-fluoro-1-oxoisoindolin-2-yl)piperidine-2,6-dione] | > 30 µM | > 30 µM | > 30 µM | 0.018 µM | 85.8% | 85.8% |  |  |  |
| O=C1CCC(N2Cc3cc(O[C@H]4CCCC[C@@H]4N4CC(C5CC(F)(F)C5)C4)ccc3C2=O)C(=O)N1 (stereo partly drawn) [Compound 18, 3-(5-(((1S,2S)-2-(3-(3,3-difluorocyclobutyl)azetidin-1-yl)cyclohexyl)oxy)-1-oxoisoindolin-2-yl)piperidine-2,6-dione] | > 30 µM | > 30 µM | > 30 µM | 0.029 µM | 71.1% | 95.8% |  |  |  |
| O=C1CCC(N2Cc3cc(O[C@H]4CCCC[C@@H]4N4CC(C5CCCC5)C4)ccc3C2=O)C(=O)N1 (stereo partly drawn) [Compound 6, 3-(5-(((1S,2S)-2-(3-cyclopentylazetidin-1-yl)cyclohexyl)oxy)-1-oxoisoindolin-2-yl)piperidine-2,6-dione] | > 30 µM | > 30 µM | > 30 µM | 0.003 µM | 86.3% | 86.3% |  |  |  |

Continued, values first:

| DC50 (IKZF1 (Ikaros)) | DC50 (IKZF3 (Aiolos)) | DC50 (GSPT1) | DC50 (IKZF2 (Helios); HEK 293T reporter cells) | inhibition at 1 µM (IKZF2 (Helios); [1]) | inhibition at 1 µM (IKZF2 (Helios); [2]) | IKZF2% Degradation @ 1 μM (IKZF2 (Helios); [1]) | IKZF2% Degradation @ 1 μM (IKZF2 (Helios); [2]) | IKZF3% Degradation @ 1 μM (IKZF3 (Aiolos); 1 μM) | SMILES |
| --- | --- | --- | --- | --- | --- | --- | --- | --- | --- |
| > 30 µM | > 30 µM | > 30 µM | 0.001 µM | 95.5% | 95.5% |  |  |  | CC(C)OC1CCC(C2CN([C@H]3CCCC[C@@H]3Oc3ccc4c(c3)CN(C3CCC(=O)NC3=O)C4=O)C2)CC1 (stereo partly drawn) [Compound 16, 3-(5-(((1S,2S)-2-(3-((cis)-4-isopropoxycyclohexyl)azetidin-1-yl)cyclohexyl)oxy)-1-oxoisoindolin-2-yl)piperidine-2,6-dione] |
| > 30 µM | > 30 µM | > 30 µM | 0.002 µM | 72.8% | 72.8% |  |  |  | CCOC1CCC(C2CN([C@H]3CCCC[C@@H]3Oc3ccc4c(c3)CN(C3CCC(=O)NC3=O)C4=O)C2)CC1 (stereo partly drawn) [Compound 19, 3-(5-(((1S,2S)-2-(3-(4-ethoxycyclohexyl)azetidin-1-yl)cyclohexyl)oxy)-1-oxoisoindolin-2-yl)piperidine-2,6-dione] |
| > 30 µM | > 30 µM | > 30 µM | 0.001 µM |  |  | 96.7% | 96.7% |  | CC(C)OC1CCC(C2CN([C@H]3CCCC[C@@H]3Oc3ccc4c(c3)CN(C3CCC(=O)NC3=O)C4=O)C2)CC1 (stereo partly drawn) [Compound 17, 3-(5-(((1S,2S)-2-(3-((trans)-4-isopropoxycyclohexyl)azetidin-1-yl)cyclohexyl)oxy)-1-oxoisoindolin-2-yl)piperidine-2,6-dione] |
| > 30 µM | > 30 µM | > 30 µM | 0.004 µM | 85% | 85% |  |  |  | O=C1CCC(N2Cc3cc(O[C@H]4CCCC[C@@H]4N4CC(C5CCC5)C4)ccc3C2=O)C(=O)N1 (stereo partly drawn) [Compound 5, 3-(5-(((1S,2S)-2-(3-cyclobutylazetidin-1-yl)cyclohexyl)oxy)-1-oxoisoindolin-2-yl)piperidine-2,6-dione] |
| > 30 µM | 0.006 µM | > 30 µM | 0.002 µM | 86.7% | 86.7% |  |  | 32.4% | O=C1CCC(N2Cc3cc(O[C@H]4CCCC[C@@H]4N4CC(C5CCC(OC(F)F)CC5)C4)ccc3C2=O)C(=O)N1 (stereo partly drawn) [Compound 21, 3-(5-(((1S,2S)-2-(3-(4-(difluoromethoxy)cyclohexyl)azetidin-1-yl)cyclohexyl)oxy)-1-oxoisoindolin-2-yl)piperidine-2,6-dione] |
